The text below walks through data of publication PMC11995724, “Antibiotic target discovery by integrated phenotypic and activity-based profiling of electrophilic fragments” (Cell chemical biology, 2025).

Structures are written as SMILES. Where a name gives a salt, the structure may show the parent alone.

This series in a line: in vitro. The following applies: human, hek293t cells.
Take `CN(C)c1ccc(C=C(C#N)C(=O)N2CCC2)cc1` [9-A14, 2-(azetidine-1-carbonyl)-3-[4-(dimethylamino)phenyl]prop-2-enenitrile]: the viability at 48 h, 25 µM worked out at 106%.
The result for `C=CC(=O)NCCc1nc(C)cs1` [2-D05, N-[2-(4-methyl-1,3-thiazol-2-yl)ethyl]prop-2-enamide] reads 70.3%.
For the molecule `O=C(CCl)Cc1c(F)cccc1Cl` [10-D20, 1-chloro-3-(2-chloro-6-fluorophenyl)propan-2-one], the viability at 48 h, 25 µM was determined as 37%.
The result for `C=CC(=O)N1CCCC(O)(CC(N)=O)C1` (stereo not shown) [3-K14, 2-[3-hydroxy-1-(prop-2-enoyl)piperidin-3-yl]acetamide] reads 101%; that for `CC(C)CNC(=O)c1ccccc1NC(=O)CCl` [4-E04, 2-(2-chloroacetamido)-N-(2-methylpropyl)benzamide], 0.855%; that for `Cc1cc(C=C(C#N)C(=O)Nc2nccs2)ccc1-n1cncn1` [9-J14, 2-cyano-3-[3-methyl-4-(1H-1,2,4-triazol-1-yl)phenyl]-N-(1,3-thiazol-2-yl)prop-2-enamide], 104%.
The figure for `Cc1cc(C(=O)C(C)Cl)c(C)n1Cc1ccco1` (stereo not shown) [10-E06, 2-chloro-1-{1-[(furan-2-yl)methyl]-2,5-dimethyl-1H-pyrrol-3-yl}propan-1-one] is 105%.
The result for `CC(Cl)C(=O)N1CCN(c2ccccc2)CC1` (stereo not shown) [4-E14, 2-chloro-1-(4-phenylpiperazin-1-yl)propan-1-one hydrochloride] reads 66.3%.
`O=C(Nc1nccs1)N1CCSSCC1` [10-O22, N-(1,3-thiazol-2-yl)-1,2,5-dithiazepane-5-carboxamide]: the viability at 48 h, 25 µM was found to be 113%.
The result for `O=C1C=CC(=O)N1CCc1ccccc1F` [10-G03, 1-[2-(2-fluorophenyl)ethyl]-2,5-dihydro-1H-pyrrole-2,5-dione] reads 11.2%.
Turning to `CC(C)NC(=O)C(C#N)=Cc1ccc(Cl)c(Cl)c1` [9-M07, 2-cyano-3-(3,4-dichlorophenyl)-N-(propan-2-yl)prop-2-enamide], the viability at 48 h, 25 µM came to 30.2%.
The result for `O=C(CCl)c1ccc2c(c1)CCN(C(=O)C(F)(F)F)C2` [10-E09, 1-[6-(2-chloroacetyl)-1,2,3,4-tetrahydroisoquinolin-2-yl]-2,2,2-trifluoroethan-1-one] reads 4.03%; that for `C=CC(=O)N1CCC(C(=O)NCC2COC3(CCCC3)O2)CC1` (stereo not shown) [3-A16, N-({1,4-dioxaspiro[4.4]nonan-2-yl}methyl)-1-(prop-2-enoyl)piperidine-4-carboxamide], 73.4%; that for `O=C(CCl)c1ccncc1` [10-M09, 2-chloro-1-(pyridin-4-yl)ethan-1-one hydrochloride], 79.1%.
The figure for `Cc1cc(CNC(=O)C(C#N)=Cc2ccco2)ccc1N(C)C` [9-N09, 2-cyano-N-{[4-(dimethylamino)-3-methylphenyl]methyl}-3-(furan-2-yl)prop-2-enamide] is 113%.
The figure for `COc1cc(CN(C(=O)CCl)C2CCCOC2)ccc1C` (stereo not shown) [5-E12, 2-chloro-N-[(3-methoxy-4-methylphenyl)methyl]-N-(oxan-3-yl)acetamide] is 0.549%.
On to `C=CC(=O)N(C)Cc1cc2ccccc2o1` [3-I09, N-[(1-benzofuran-2-yl)methyl]-N-methylprop-2-enamide], for which the viability at 48 h, 25 µM amounted to 47.1%.
The figure for `C=CCNC(=O)C(C#N)=Cc1ccc(C)s1` [9-F05, 2-cyano-3-(5-methylthiophen-2-yl)-N-(prop-2-en-1-yl)prop-2-enamide] is 108%; for `N#CC(=Cc1cccc2ccccc12)C(=O)NC1CC1` [9-O03, 2-cyano-N-cyclopropyl-3-(naphthalen-1-yl)prop-2-enamide] it is 116%; for `CC(Cl)C(=O)Nc1ccc(Cl)c(C(F)(F)F)c1` (stereo not shown) [4-C12, 2-chloro-N-[4-chloro-3-(trifluoromethyl)phenyl]propanamide] it is 51%.
The result for `O=C(CCl)NC(c1ccc(F)cc1)C1CCCC1` (stereo not shown) [6-K08, 2-chloro-N-[cyclopentyl(4-fluorophenyl)methyl]acetamide] reads 1.04%; that for `C=CC(=O)NC(C)c1nnnn1C` (stereo not shown) [3-A15, N-[1-(1-methyl-1H-1,2,3,4-tetrazol-5-yl)ethyl]prop-2-enamide], 23.9%.
With `C=CC(=O)NCC1CN(Cc2cccc(C)c2)CCO1` (stereo not shown) [3-A05, N-({4-[(3-methylphenyl)methyl]morpholin-2-yl}methyl)prop-2-enamide], the viability at 48 h, 25 µM amounted to 41%.
Regarding `CC(C)NC(=O)C(C#N)=Cc1ccc(OC(C)C)cc1` [8-G12, 2-cyano-N-(propan-2-yl)-3-[4-(propan-2-yloxy)phenyl]prop-2-enamide], the viability at 48 h, 25 µM was 64.9%.
As for `C=CC(=O)NCc1ccc(C(=O)N2CCC(c3ccn[nH]3)CC2)cc1` [3-K08, N-({4-[4-(1H-pyrazol-5-yl)piperidine-1-carbonyl]phenyl}methyl)prop-2-enamide], the viability at 48 h, 25 µM worked out at 95.2%.
The result for `CCc1ccc(NC(=O)C(C)Cl)cc1` (stereo not shown) [4-L15, 2-chloro-N-(4-ethylphenyl)propanamide] reads 76.6%.
Turning to `N#CC(=Cc1ccc(OC(F)F)cc1)C(=O)N1CCCc2ccccc21` [8-E03, 3-[4-(difluoromethoxy)phenyl]-2-(1,2,3,4-tetrahydroquinoline-1-carbonyl)prop-2-enenitrile], the viability at 48 h, 25 µM turned out to be 64.6%.
The result for `C=CC(=O)N1CC[C@H](Oc2ccc(F)cc2)C1` [2-A15, 1-[(3S)-3-(4-fluorophenoxy)pyrrolidin-1-yl]prop-2-en-1-one] reads 185%; that for `CC1=C(C#N)C(=O)N(C)C(=O)C1=Cc1ccc(-c2ccc(F)cc2)o1` [9-I18, 5-{[5-(4-fluorophenyl)furan-2-yl]methylidene}-1,4-dimethyl-2,6-dioxo-1,2,5,6-tetrahydropyridine-3-carbonitrile], 125%.
The figure for `CC(Cl)C(=O)N[C@H]1C[C@H](C)S(=O)(=O)c2sccc21` (stereo partly drawn) [6-B22, 2-chloro-N-[(2S,4S)-2-methyl-1,1-dioxo-2H,3H,4H-1lambda6-thieno[2,3-b]thiopyran-4-yl]propanamide] is 92.4%; for `CCOc1ccc(NC(=O)C(C#N)=Cc2ccc(F)cc2)cc1` [8-N07, 2-cyano-N-(4-ethoxyphenyl)-3-(4-fluorophenyl)prop-2-enamide] it is 102%.
The result for `C=CCN(Cc1cccs1)C(=O)CCl` [5-B06, 2-chloro-N-(prop-2-en-1-yl)-N-[(thiophen-2-yl)methyl]acetamide] reads 0.0461%; that for `CC(C)c1cccc(C(C)C)c1NC(=O)CCl` [5-G13, N-[2,6-bis(propan-2-yl)phenyl]-2-chloroacetamide], 37.8%; that for `C=CC(=O)N(C)Cc1nnc(C2CC2)n1C` [2-H11, N-[(5-cyclopropyl-4-methyl-4H-1,2,4-triazol-3-yl)methyl]-N-methylprop-2-enamide], 72.8%.
With `N#CC(=Cc1ccc(-c2ccccc2F)o1)C(=O)NCc1ccccc1` [9-H10, N-benzyl-2-cyano-3-[5-(2-fluorophenyl)furan-2-yl]prop-2-enamide], the viability at 48 h, 25 µM was found to be 92.7%.
The result for `CC(c1ccccc1F)N1CCCC(NC(=O)CCl)C1=O` (stereo not shown) [5-I10, 2-chloro-N-{1-[1-(2-fluorophenyl)ethyl]-2-oxopiperidin-3-yl}acetamide] reads 80.5%.
For the molecule `C=CC(=O)N1CC(c2ncon2)C1` [2-I03, 1-[3-(1,2,4-oxadiazol-3-yl)azetidin-1-yl]prop-2-en-1-one], the viability at 48 h, 25 µM was 181%.
Turning to `CC(Cl)C(=O)N[C@H]1C[C@@H]1c1cnn(-c2ccccc2)c1` (mixture of isomers) [7-M08, rac-2-chloro-N-[(1R,2S)-2-(1-phenyl-1H-pyrazol-4-yl)cyclopropyl]propanamide], the viability at 48 h, 25 µM came out at 76.7%.
The figure for `C=CC(=O)N(C)CC(=O)Nc1ccc(N2C[C@@H](C)O[C@@H](C)C2)cc1` [3-H08, N-[({4-[(2R,6S)-2,6-dimethylmorpholin-4-yl]phenyl}carbamoyl)methyl]-N-methylprop-2-enamide] is 94.9%; for `C=CC(=O)N1CCOC(c2nc(C)cs2)C1` (stereo not shown) [3-A17, 1-[2-(4-methyl-1,3-thiazol-2-yl)morpholin-4-yl]prop-2-en-1-one] it is 26.2%; for `CCCn1c(C)cc(C=C(C#N)C(=O)Nc2ccccc2)c1C` [8-H05, 2-cyano-3-(2,5-dimethyl-1-propyl-1H-pyrrol-3-yl)-N-phenylprop-2-enamide] it is 108%.
The figure for `Cc1ccc(C=C(C#N)C(=O)NC2CC2)s1` [9-K15, 2-cyano-N-cyclopropyl-3-(5-methylthiophen-2-yl)prop-2-enamide] is 126%.
As for `Cc1ccc(C)c(-c2cc(NC(=O)CCl)n(-c3ccccc3)n2)c1` [4-M14, 2-chloro-N-[3-(2,5-dimethylphenyl)-1-phenyl-1H-pyrazol-5-yl]acetamide], the viability at 48 h, 25 µM amounted to 0.149%.
The figure for `C=CC(=O)NCC1CCN(c2ccccc2)C1` (stereo not shown) [3-B17, N-[(1-phenylpyrrolidin-3-yl)methyl]prop-2-enamide] is 66.8%.
Take `Cc1ccc(C)c(NC(=O)C(C#N)=Cc2ccc3c(c2)OCCO3)c1` [8-L11, 2-cyano-3-(2,3-dihydro-1,4-benzodioxin-6-yl)-N-(2,5-dimethylphenyl)prop-2-enamide]: the viability at 48 h, 25 µM was 96.2%.
The result for `O=C(CCl)NCC(=O)Nc1ccc(F)c(F)c1F` [4-D18, 2-chloro-N-{[(2,3,4-trifluorophenyl)carbamoyl]methyl}acetamide] reads 2.12%.
The figure for `N#CC(=Cc1ccccc1)C(=O)NCc1ccc(F)cc1` [8-P10, 2-cyano-N-[(4-fluorophenyl)methyl]-3-phenylprop-2-enamide] is 89%.
Consider `COCc1ccc(CNC(=O)CCl)cc1` [6-O22, 2-chloro-N-{[4-(methoxymethyl)phenyl]methyl}acetamide], for which the viability at 48 h, 25 µM came to 99.4%.
The figure for `O=C(CCl)N1CCC(C2CCCN(C(=O)C(F)(F)F)C2)CC1` (stereo not shown) [5-E20, 1-[1'-(2-chloroacetyl)-[3,4'-bipiperidin]-1-yl]-2,2,2-trifluoroethan-1-one] is 1.17%.
